Consider four compounds from paper PMC7221482 (Neurochemistry international, 2019).

Molecules are shown by their SMILES. Structures can show the parent of a compound that is named as a salt. Where two headings read alike, the source gives them in different places.

Test [1] addresses T1, hα3β4 AChRs ([3H]imipramine sites) (Homo sapiens, UniProt P30926+P32297). Conditions: ref Arias et al., cited from earlier work.
Test [2] has as its target T2, hα4β2 AChRs ([3H]imipramine sites) (Homo sapiens, UniProt P17787+P43681). Conditions: read-out: Kd (dissociation constant), ref Arias et al., 2010b; cited from earlier work.
Another test concerns the target hα3β4 AChRs (Homo sapiens, UniProt P30926+P32297). It counts as cell-based.
In a further test the target is hα4β2 AChRs (Homo sapiens, UniProt P17787+P43681). The class given is cell-based.
A further test concerns the target hα7 AChRs (Homo sapiens, UniProt P36544). The class given is cell-based.
Another test has as its target rα9α10 AChRs (Rattus norvegicus, UniProt P43144+Q9JLB5). It counts as cell-based.
A further test addresses habenular mα3β4* AChRs (Mus musculus, UniProt Q8R493+Q8R4G9). Description: Patch-clamp recordings of ACh-evoked currents from MHb. The class given is cell-based. In general terms: The patch-clamp technique gives a direct electrical read-out from membranes.
Test [3] addresses T1, hα3β4 AChRs ([3H]imipramine sites). In words: [3H]Imipramine competition binding to hα3β4 AChR-containing membranes.
Test [4] addresses T2, hα4β2 AChRs ([3H]imipramine sites). Description: [3H]Imipramine competition binding to hα4β2 AChR-containing membranes.
Where [5] appears, read: desensitized state, [3H]imipramine competition.

As for `CN(C)CCCN1c2ccccc2CCc2ccccc21` [[^3H]imipramine, [^3H]Imipramine hydrochloride], the Kd in test [1] (read-out: Kd (dissociation constant), hα3β4 AChRs, 2010c) was 0.41 µM; in [2], 0.83 µM.

Take `CN(C)CCCC1(c2ccc(F)cc2)OCc2cc(C#N)ccc21` (racemic) [(±)-citalopram, 1-[3-(dimethylamino)propyl]-1-(4-fluorophenyl)-1,3-dihydro-5-isobenzofurancarbonitrile]: the IC50 against hα3β4 AChRs was 5.1 ± 1.3 µM; against hα4β2 AChRs, 19.1 ± 4.2 µM; at hα7 AChRs it was 18.8 ± 1.1 µM; on rα9α10 AChRs, 7.5 ± 0.9 µM; at habenular mα3β4* AChRs (IC50(0), ligand concentration to produce 50% inhibition at 0 mV, one-site blocking model, Eq. (1)), 92 µM; at habenular mα3β4* AChRs (IC50, inhibition of 100 μM ACh puff-evoked currents, MHb (VI) neurons) it was 7.6 ± 1 µM. Also, the “nH (Hill coefficient)” value turned out to be 1.00 ± 0.10 on hα3β4 AChRs (inhibition of (±)-epibatidine-induced Ca2+ influx, HEK293-hα3β4 cells); 1.24 ± 0.19 on hα4β2 AChRs (inhibition of (±)-epibatidine-induced Ca2+ influx, HEK293-hα4β2 cells); 1.44 ± 0.22 at hα7 AChRs (inhibition of (±)-epibatidine-induced Ca2+ influx, GH3-hα7 cells); 1.35 ± 0.10 at rα9α10 AChRs (inhibition of 10 μM ACh-evoked rα9α10 currents, Xenopus oocytes); 0.74 ± 0.04 in test [3] (setting [5]); 0.72 ± 0.03 in [4] (setting [5]). In addition, the “increase of the ACh EC50 value” at rα9α10 AChRs (8.0 μM (±)-citalopram, p = 0.0001) is recorded as 7.5 fold. Also, the inhibition at 10 µM at rα9α10 AChRs (read-out: inhibition of ACh responses, 10 μM (±)-citalopram, 10 μM ACh, +40 mV) came to 43.3 ± 4.9%; at rα9α10 AChRs (read-out: inhibition of ACh responses, 10 μM (±)-citalopram, 10 μM ACh, −90 mV), 46 ± 4.7%. Further, the Ki came to 1.8 ± 0.1 µM in test [3]; 4.1 ± 0.3 µM in test [4]; 5.9 ± 0.4 µM in test [4] (Ki (binding affinity), resting state, in the presence of 0.1 κ-bungarotoxin).

As to `CNCCC(Oc1ccc(C(F)(F)F)cc1)c1ccccc1` (centres unmarked) [fluoxetine], in test [1] (hα3β4 AChR, [3H]imipramine sites, 2010a), the Ki was 4.8 ± 0.5 µM.

For the compound `CC(=O)OCC[N+](C)(C)C` [ACh, acetylcholine], the “nH of ACh” value came out at 0.98 ± 0.2 at rα9α10 AChRs (No (±)-citalopram) and 1.11 ± 0.6 on rα9α10 AChRs (in the presence of 8.0 μM (±)-citalopram).

Usually Kd stands for the constant that tells how readily two partners part at equilibrium. By IC50 is commonly meant the concentration at which inhibition is half-maximal. Low values mean higher potency, high ones lower potency. As usually defined, the inhibition is the share of the control response that was lost under treatment. Usually Ki stands for a dissociation constant, usually derived from enzyme kinetics or from competition with a known ligand.
